No end group written: not given here.
Legend:
[1] = system: spleen cells; assay: Th1/Th2 cytokine profiling assay (Ovalbumin-restimulated spleen cells, CBA kit); type: cell-based, Balb/c mice; settings: 10 micrograms per ml; Ovalbumin restimulation, 72 hours
[2] = system: hepatitis B virus (HBV) ayw strain; assay: HBV experimental assay system, secreted HBV DNA by TaqMan PCR in HepG2-2.2.15; type: cell-based; settings: 10 micrograms per ml; HepG2-2.2.15 cells, six days
Description: HepG2-2.2.15 is a stable cell line containing the hepatitis B virus (HBV) ayw strain genome (ATCC Cat. No. CRL-11997). Antiviral compounds blocking any late step of viral replication such as transcription, translation, pregenome encapsidation, reverse transcription, particle assembly and release can be identified and characterized using this cell line.
HepG2-2.2.15 cells were plated in 96-well microtiter plates. After 16-24 hours the confluent monolayer of HepG2-2.2.15 cells was washed and the medium was replaced with complete medium containing test peptides-10 micrograms per ml—in duplicate. […] Three days later the culture medium was replaced with fresh medium containing the peptides. Six days following the initial administration of the peptides, the cell culture supernatants was collected, treated with pronase and DNAse and then used in a real-time quantitative TaqMan PCR assay. The PCR-amplified HBV DNA was detected in real-time by monitoring increases in fluorescence signals that result from the exonucleolytic degradation of a quenched fluorescence probe molecule that hybridizes to the mplified HBV DNA. For each PCR amplification, a standard curve was simultaneously generated using dilutions of purified HBV DNA.
Antiviral activity was calculated from the reduction in HBV DNA levels (% virus control). […]

[3] = system: Human A549 cells; assay: Apoptosis prevention assay (C2 ceramide, Annexin-5); type: cell-based; settings: 10 micrograms per ml, 30 min pretreatment
Description: Human A549 cells (carcinomic human alveolar basal epithelial cells) were utilized in the experiments employing the Annexin-5 apoptosis assay. […] A549 cells were pretreated for 30 min with test peptides—10 micrograms per ml—followed by the exposure to C2 ceramide.

[4] = system: human macrophages; assay: TNF alpha production assay (LPS-stimulated macrophages, ELISA); type: cell-based; settings: 10 micrograms per ml, 30 min preincubation; LPS 200 ng/ml, overnight
Description: Human Peripheral Blood Mononuclear Cells (PBMC) were obtained from normal human donors. The macrophages were prepared by adherence of PBMC to the plastic wells of the plates. […] Not stimulated macrophages served as negative background control. After overnight incubation, supernatants from the control and LPS-stimulated cultures were harvested and assayed for TNF alpha production employing a TNF alpha specific ELISA.

[5] = system: Human Peripheral Blood Mononuclear Cells (PBMC); assay: B cell proliferation assay (SAC plus Interleukin-2, 3H-thymidine); type: cell-based; settings: 10 micrograms per ml
Description: Human Peripheral Blood Mononuclear Cells (PBMC) were obtained from normal human donors. The B cell proliferation was induced by stimulation of the cells with the B cell mitogen Staphylococcus aureus Cowans I (SAC) plus Interleukin-2, either in the absence (positive proliferation control), or in the presence of test peptides—10 micrograms per ml—to examine their effects on the B cell response. 10^5/well PBMC were plated in 96-well microtiter plates and assayed in duplicate with the peptides. […] At the end of incubation time, the plates were harvested and the cells counted by liquid scintillation for the incorporation of ^3H-thymidine as a measure of B cell proliferation.

[6] = system: Human Peripheral Blood Mononuclear Cells (PBMC); assay: T cell proliferation assay (PHA, 3H-thymidine); settings: 10 micrograms per ml, 3H-thymidine incorporation
Description: Human Peripheral Blood Mononuclear Cells (PBMC) were obtained from normal human donors. The T cell proliferation was induced by stimulation of the cells with the T cell mitogen phytohemagglutinin (PHA), either in the absence (positive proliferation control), or in the presence of test peptides—10 micrograms per ml—to examine their effects on the T cell proliferating response. 10^5/well PBMC were plated in 96-well microtiter plates and assayed in duplicate with the peptides. […] At the end of incubation time, the plates were harvested and the cells counted by liquid scintillation for the incorporation of ^3H-thymidine as a measure of T cell proliferation.

Substance: Tyr-Pro-Phe-Val-Glu-Pro-Ile-OH (YPFVEPI-OH) [Peptide 1]
- IFNγ spleen cells; TH1 response (% of control) [1]: 218.6 % of control
- IL-2 spleen cells (% of control) [1]: 96.9 % of control
- IL-4 spleen cells; TH2 response (% of control) [1]: 142.1 % of control
- IL-5 spleen cells; TH2 response (% of control) [1]: 81.6 % of control
- TNF-a spleen cells; TH1 response (% of control) [1]: 143.7 % of control
- inhibition of HBV replication as compared to the virus control infection [2]: 23.8%
- prevention (reduction) of ceramide-induced apoptosis on human lung cells [3]: 37.3%
- induction of the LPS-induced TNF-alpha production in human macrophages [4]: 18.4%
- induction of the proliferation of specifically stimulated human B-cells [5]: did not induce
- % of PHA induced Control (T cell proliferation) [6]: 98.8%

Source: patent publication US20100286029A1, “USE OF A PEPTIDE AS A THERAPEUTIC AGENT” (priority 2007, published 2010)
